In patent publication US20050196795A1, “Methods for diagnosing and treating bladder cancer” (priority 2004, published 2005):

Assays:
[1] = test system: Human bladder HT-1376 cells; test: Caspase-3 activity in cell lysates of 48 h cultures (apoptosis); assay type: cell-based; details: ANOVA, Newman-Keuls, p<0.05
Procedure: The reduction in cell proliferation seen with MIF inhibitor treatment could possibly be due to induction of apoptosis. To assess this we determined caspase-3 activity within the cell lysates of 48 h cultures.

[2] = test system: HT-1376 bladder epithelial cells; test: MIF protein synthesis and secretion (cellular and secreted MIF); assay type: cell-based, human; details: HT-1376 cells, in vitro treatment
Procedure: In order to establish the relevance of MIF to urogenital disease in humans we sought to determine if human bladder epithelial cells secrete MIF. Human bladder HT-1376 cells (ATCC, Manasas, Va.) were cultured for 48 hours and the culture medium was assayed for MIF using ELISA. In addition, intracellular content of MIF was assayed from cell lysates. These human bladder adenocarcinoma cells synthesize MIF ([…]). The average MIF concentration secreted into the medium by these cells was 15 ng/ml. Expression of MIF was confirmed by RT-PCR analysis. Thus establishing MIF secretion by human bladder epithelia.
Next, we determined if addition of MIF inhibitors in the culture media changed the synthesis or release of MIF by these cells.
A human MIF-specific “sandwich” ELISA technique was developed, based on the capture of MIF by immobilized monoclonal antibody (MAB289, R&D Systems) followed by detection with goat polyclonal anti-MIF affinity purified IgG (BAF289, R&D Systems). This assay was successfully used previously to detect MIF levels in serum and urine. This is another application of this protocol in which MIF levels are detected in urine for bladder cancer diagnosis and prognosis. Intravesical MIF inhibitors are a potential new treatment for bladder cancer. […]

HT-1376 cells = test: Cytokine protein array analysis of secreted cytokines; assay type: cell-based, human
Procedure: MIF plays a key role in pro-inflammatory gene and cytokine expression. Therefore changes in MIF expression or protein content are likely to affect the expression of additional cytokines. This may in fact be a key in the utility of MIF inhibition in treating bladder adenocarcinoma. To test this, cytokine expression changes induced by MIF inhibition were also evaluated by cytokine protein array analysis (Ray Biotech, Norcross, Ga.), which detected secreted cytokines. […] A summary of the cytokine secretion changes (2 fold or greater) seen with MIF inhibition is described in Table 1.
HT-1376 cells express and secrete 65 of the 79 cytokines present on the array. The three types of MIF inhibition all affected the cytokine secretion patterns of these cells. In table 1, blank cells indicate no difference between the amounts of cytokine secreted by the treated and control cells. Arrows indicate an increase or decrease in the fold amount of cytokine secreted. […] Healon decreased the secreted amount of 27 cytokines.

[3] = fold vs control, ↓ decrease ↑ increase, Not detected = no longer detectable after treatment

hyaluronan [Healon]
caspase-3 activity [1]: no significant increase
decrease in secreted (extracellular) MIF [2]: 2.8 fold
increase in cellular MIF content [2]: 2 fold
number of secreted cytokines whose amount was decreased (HT-1376 cells; 65 of the 79 cytokines on the array expressed): 27
Secreted Cytokines: Ang (HT-1376 cells; [3]): Not detected
Secreted Cytokines: Ckβ 8-1 (HT-1376 cells; [3]): Not detected
Secreted Cytokines: Eotaxin (HT-1376 cells; [3]): Not detected
Secreted Cytokines: Eotaxin-3 (HT-1376 cells; [3]): Not detected
Secreted Cytokines: IGF-1 (HT-1376 cells; [3]): Not detected
Secreted Cytokines: IL-1β (HT-1376 cells; [3]): no affect
Secreted Cytokines: MIF (HT-1376 cells; [3]): Not detected
Secreted Cytokines: MIP-3α (HT-1376 cells; [3]): Not detected
Secreted Cytokines: TNF-α (HT-1376 cells; [3]): Not detected
